Counter-ions that a name gives are not always drawn. Like-named read-outs stand apart in the source and are kept apart here.
Target: DPP4 (Homo sapiens, UniProt P27487)
Assay: DPP4 activity assay (DPP4 inhibitor screening assay kit, Cayman);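 further: fluorescence read at excitation 360 nm and emission 460 nm after the enzyme reaction ran 30 min at 37 °C in a 96-well plate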
Type: biochemical
Parameters: purchased Cayman Chemical, Ann Arbor, MI, USA
Settings: for remaining activity at 10 µM: 0.5 h
[1] = 10 µM, control mean 100.0, Figure 1A raw data, read-out: DPP4 activity in library screen, Exp 1
[2] = 10 µM, control mean 100.0, Figure 1A raw data, read-out: DPP4 activity in library screen, Exp 2
[3] = 10 µM, control mean 100.0, Figure 1A raw data, read-out: DPP4 activity in library screen, Exp 3
[4] = 10 µM, control mean 100.0, mean of Exp 1-3, read-out: DPP4 activity in library screen, Mean
[5] = 10 µM, control mean 100.0, Figure 1A raw data
[6] = 10 µM, control mean 100.0, mean of Exp 1-3
[7] = read-out: DPP4 activity in library screen, Exp 1, 10 µM, control mean 100.0, Figure 1A raw data
[8] = read-out: DPP4 activity in library screen, Exp 2, 10 µM, control mean 100.0, Figure 1A raw data
[9] = read-out: DPP4 activity in library screen, Exp 3, 10 µM, control mean 100.0, Figure 1A raw data
[10] = read-out: DPP4 activity in library screen, Mean, 10 µM, control mean 100.0, mean of Exp 1-3

Chain of DPP4 (P27487 whole entry): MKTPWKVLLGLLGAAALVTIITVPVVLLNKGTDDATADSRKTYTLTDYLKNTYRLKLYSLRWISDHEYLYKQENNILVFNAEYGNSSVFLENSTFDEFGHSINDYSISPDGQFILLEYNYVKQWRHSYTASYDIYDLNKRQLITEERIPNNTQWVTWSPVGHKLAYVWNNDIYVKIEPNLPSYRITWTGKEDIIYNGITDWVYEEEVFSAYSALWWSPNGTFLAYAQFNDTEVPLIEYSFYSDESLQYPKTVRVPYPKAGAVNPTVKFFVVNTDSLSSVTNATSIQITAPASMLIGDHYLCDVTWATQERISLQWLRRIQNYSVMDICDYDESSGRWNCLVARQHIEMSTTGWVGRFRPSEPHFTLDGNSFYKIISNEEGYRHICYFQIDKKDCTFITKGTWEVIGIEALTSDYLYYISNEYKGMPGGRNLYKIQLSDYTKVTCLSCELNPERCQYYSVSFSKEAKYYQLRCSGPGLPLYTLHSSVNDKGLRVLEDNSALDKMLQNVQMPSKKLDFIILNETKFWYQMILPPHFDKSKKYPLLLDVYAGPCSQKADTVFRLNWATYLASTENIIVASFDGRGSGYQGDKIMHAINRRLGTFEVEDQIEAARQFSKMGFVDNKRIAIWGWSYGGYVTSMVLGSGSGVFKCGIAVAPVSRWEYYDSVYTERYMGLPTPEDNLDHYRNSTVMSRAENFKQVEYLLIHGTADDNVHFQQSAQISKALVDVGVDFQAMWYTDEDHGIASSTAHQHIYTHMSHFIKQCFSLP

Compound	remaining activity at 10 µM [1] [%]	remaining activity at 10 µM [2] [%]	remaining activity at 10 µM [3] [%]	remaining activity at 10 µM [4] [%]	other results
O=C(O)C1=C[C@@H](O)[C@@H](O)[C@H](O)C1 [Shikimic Acid]	87.3	80.7	84.9	84.3	–
COc1cc(C2Oc3cc([C@H]4Oc5cc(O)cc(O)c5C(=O)[C@@H]4O)ccc3OC2CO)ccc1O (some centres unmarked) [Silibinin]	65.1	76.8	67.3	69.7	–
COC1=C[C@@H]2[C@@H]3Cc4ccc(OC)c(O)c4[C@]2(CCN3C)CC1=O [Sinomenine]	–	–	–	–	remaining activity at 10 µM (read-out: DPP4 activity in library screen, Exp 1): 103%; remaining activity at 10 µM (read-out: DPP4 activity in library screen, Exp 2): 93.4%; remaining activity at 10 µM (read-out: DPP4 activity in library screen, Mean): 104%
O=C([O-])C(O)Cc1ccc(O)c(O)c1.[Na+] (centres unmarked) [Sodium Danshensu]	–	–	–	–	DPP4 activity in library screen, Exp 1 [5]: 95.8; DPP4 activity in library screen, Exp 2 [5]: 90.3; DPP4 activity in library screen, Exp 3 [5]: 90.2; DPP4 activity in library screen, Mean [6]: 92.1
O=C1C=CC[C@@H]2[C@H]3CCCN4CCC[C@@H](CN12)[C@@H]34 [Sophocarpine]	96.7	109	111	105	–
OC[C@@H](O)[C@@H](O)[C@H](O)[C@@H](O)CO [Sorbitol]	94.5	91.5	90.4	92.1	–
CNCC(O)c1ccc(O)cc1 (centres unmarked) [Synephrine]	98.7	76.9	87.7	87.8	–
COc1ccc(-c2cc(=O)c3c(OC)c(OC)c(OC)c(OC)c3o2)cc1 [Tangeretin]	75.6	80.1	66.2	74	–
Cc1coc2c1C(=O)C(=O)c1c-2ccc2c1CCCC2(C)C [Tanshinone IIA]	50.8	56.6	69.7	59	–
Cc1coc2c1C(=O)C(=O)c1c-2ccc2c(C)cccc12 [Tanshinone I]	56.8	59.3	58.1	58.1	–
O=C1c2c(O)cc(O)cc2OC(c2ccc(O)c(O)c2)C1O (centres unmarked) [Taxifolin (Dihydroquercetin), Taxifolin]	93.8	83.2	67.9	81.6	–
COc1ccc(CC2NCCc3cc(OC)c(OC)cc32)cc1OC.Cl (centres unmarked) [Tetrahydropapaverine HCl]	–	–	–	–	DPP4 activity in library screen, Exp 1 [5]: 92.5; DPP4 activity in library screen, Exp 2 [5]: 78; DPP4 activity in library screen, Exp 3 [5]: 76.9; DPP4 activity in library screen, Mean [6]: 82.5
COc1ccc2cc1Oc1ccc(cc1)C[C@H]1c3cc(c(OC)cc3CCN1C)Oc1c(OC)c(OC)cc3c1[C@H](C2)N(C)CC3 [Tetrandrine]	99.9	98	99.8	99.2	–
C[C@H]1CC[C@]2(NC1)O[C@H]1C[C@H]3[C@@H]4CC[C@H]5C[C@@H](O[C@@H]6O[C@H](CO)[C@H](O[C@@H]7O[C@H](CO)[C@@H](O)[C@H](O[C@@H]8OC[C@@H](O)[C@H](O)[C@H]8O)[C@H]7O[C@@H]7O[C@H](CO)[C@@H](O)[C@H](O)[C@H]7O)[C@H](O)[C@H]6O)CC[C@]5(C)[C@H]4CC[C@]3(C)[C@H]1[C@@H]2C [Tomatine]	103	91.8	124	106	–
CC(C)[C@]12O[C@H]1[C@@H]1O[C@]13[C@]1(O[C@H]1C[C@H]1C4=C(CC[C@@]13C)C(=O)OC4)[C@@H]2O [Triptolide (PG490), Triptolide]	–	–	–	–	remaining activity at 10 µM [7]: 98.7%; remaining activity at 10 µM [8]: 94.9%; remaining activity at 10 µM [9]: 109%; remaining activity at 10 µM [10]: 101%
C[C@@H]1O[C@@H](OC[C@H]2O[C@@H](Oc3c(-c4ccc(OCCO)c(OCCO)c4)oc4cc(OCCO)cc(O)c4c3=O)[C@H](O)[C@@H](O)[C@@H]2O)[C@H](O)[C@H](O)[C@H]1O [Troxerutin]	69.8	62.2	57.2	63.1	–
C[C@H]1[C@H](C)CC[C@]2(C(=O)O)CC[C@]3(C)C(=CC[C@@H]4[C@@]5(C)CC[C@H](O)C(C)(C)[C@@H]5CC[C@]43C)[C@H]12 [Ursolic Acid]	85.1	78.9	89.1	84.4	–
COc1cc(C=O)ccc1O [Vanillin]	105	95.3	51.5	83.8	–
COc1cc(CCC(C)=O)ccc1O [Vanillylacetone]	–	–	–	–	DPP4 activity in library screen, Exp 1 [5]: 87.8; DPP4 activity in library screen, Exp 2 [5]: 96.8; DPP4 activity in library screen, Exp 3 [5]: 79.9; DPP4 activity in library screen, Mean [6]: 88.2
COc1cc(O)c(CC=C(C)C)c(O)c1C(=O)/C=C/c1ccc(O)cc1 [Xanthohumol]	94.5	102	126	107	–
O=c1c2ccccc2oc2ccccc12 [Xanthone]	88.9	79.9	77.7	82.2	–
COC(=O)[C@@H]1[C@H]2C[C@H]3c4[nH]c5ccccc5c4CCN3C[C@@H]2CC[C@@H]1O [Yohimbine HCl]	–	–	–	–	remaining activity at 10 µM [7]: 92.1%; remaining activity at 10 µM [8]: 92.7%; remaining activity at 10 µM [9]: 90.1%; remaining activity at 10 µM [10]: 91.6%
CC[C@H](CC[C@@H](C)[C@H]1CC[C@H]2[C@@H]3CC=C4C[C@@H](O)CC[C@]4(C)[C@H]3CC[C@]12C)C(C)C [beta-sitosterol]	98.6	92.3	104	98.2	–
COC12c3c(C)cc(O)c4c(=O)occ(c34)C(=O)C1C13COC(=O)c4c(O)cc(C)c(c41)C(=O)C2C3OC(C)=O (centres unmarked) [duclauxin]	–	–	–	–	DPP4 activity in library screen, Exp 1 [5]: 98.3; DPP4 activity in library screen, Exp 2 [5]: 99.5; DPP4 activity in library screen, Exp 3 [5]: 163.1; DPP4 activity in library screen, Mean [6]: 120.3
Methyl-Hesperidin	–	–	–	–	DPP4 activity in library screen, Exp 1 [5]: 98.7; DPP4 activity in library screen, Exp 2 [5]: 101.2; DPP4 activity in library screen, Exp 3 [5]: 74.4; DPP4 activity in library screen, Mean [6]: 91.4
Myricitrin	–	–	–	–	DPP4 activity in library screen, Exp 1 [5]: 67; DPP4 activity in library screen, Exp 2 [5]: 70.2; DPP4 activity in library screen, Exp 3 [5]: 70.2; DPP4 activity in library screen, Mean [6]: 69.1
xenoclauxin	–	–	–	–	DPP4 activity in library screen, Exp 1 [5]: 105.6; DPP4 activity in library screen, Exp 2 [5]: 107.6; DPP4 activity in library screen, Exp 3 [5]: 132.5; DPP4 activity in library screen, Mean [6]: 115.2

— publication PMC5428354, “Screening of a natural compound library identifies emodin, a natural compound from Rheum palmatum Linn that inhibits DPP4” (PeerJ, 2017)
